Consider three compounds from article PMC11187260, “Unraveling the interconversion pharmacokinetics and oral bioavailability of the major ginger constituents: [6]-gingerol, [6]-shogaol, and zingerone after single-dose administration in rats” (Frontiers in Pharmacology, 2024).

Holding throughout (format): in vivo, Female Sprague Dawley rats
Data set [1] is described as follows: Pharmacokinetics after single intravenous administration (3 mg/kg), plasma LC-MS/MS. The settings on record: mean ± SD n=6. The protocol:
This study is composed of two sections; the first section involves an investigation of the interconversion pharmacokinetics of the pure compounds, and the second focuses on tissue distribution. All rats were transferred to metabolic cages and fasted overnight for at least 10 h. The animals were then randomly divided into four groups (6 rats/group) to receive a single intravenous (i.v.) administration of either 6G, 6S, zingerone, or vehicle via the lateral tail vein at a dosage of 3 mg/kg. After a 7-week washout period, the rats received 30 mg/kg of the same test compounds through a single oral (p.o.) administration. Following each administration, blood samples (300 µL) were collected in heparinized tubes from the lateral tail vein (while rats were under anesthesia with isoflurane) at specified time points: 0.083, 0.25, 0.5, 1, 1.5, 2, 3, 4, 6, 8, and 24 h after administration. An additional 1 mL of blood sample was collected from each rat at pre-dose (0 h) and post-dose (24 h) for clinical laboratory testing and safety evaluation. All heparinized blood samples were initially centrifuged at 5,000 × g, 4 °C, for 10 min. Subsequently, the plasma was carefully transferred to a cryotube as an aliquot sample and then stored at −40 °C until analysis. Urine and feces were collected during the intervals of 0–24 h and 24–48 h post-dosing, and their weights and volumes were documented. All collected urine and feces samples were stored at −40 °C until analysis. Plasma samples were processed through protein precipitation. In brief, 50 µL of plasma was mixed with 200 µL of methanol containing 50 ng/mL of IS (dihydrocapsaicin). The mixtures were vortexed and centrifuged at 14,000 × g at 4 °C for 10 min. The supernatant was filtered through a […] PVDF membrane (Chrome Tech, MN, USA) before analysis. Investigation of glucuronide conjugations followed a previously published method with some modification ([Wang et al., 2017]; [Songvut et al., 2023]). A 50 μL aliquot of plasma, urine, or feces sample was incubated at 37 °C for a minimum of 30 min with 50 μL of β-glucuronidase (3,000 U/mL) in a sodium phosphate buffer (pH 6.8). For sample extraction, 150 μL of methanol containing 50 μg/L of IS was pipetted into the pre-incubated samples. Subsequently, the mixtures were vortexed for 10 min and then centrifuged at 14,000 × g at 4 °C for 10 min. The supernatants were filtered through a […] PVDF membrane (Chrome Tech, MN, United States) and then analyzed using the validated LC-MS/MS method. Quantitative analysis was conducted using liquid chromatography-tandem mass spectrometry (LC-MS/MS) with a Nexera X2 LCMS-8060NX instrument (Shimadzu, Japan). The instrument included a CBM-40lite system controller, CTO-40C column oven, SIL-40C XR autosampler, LC-40D XR solvent pump unit, FCV-DGU-403 degasser, and 20AH2 switching valve. The LC-MS/MS system was operated with a binary pump and equipped with a triple quadrupole mass spectrometer. Pharmacokinetic parameters were assessed using PK Solutions software (version 2.0) with non-compartmental analysis. The AUC was calculated using the Linear-Log Trapezoidal Method. The maximum plasma concentration (Cmax) and time to reach maximum plasma concentration (Tmax) were taken directly from the graph.

The nature of data set [2]: Percent recovery in urine and feces after intravenous or oral administration. The settings on record: % of administered dose. The protocol: (§1) This study is composed of two sections; the first section involves an investigation of the interconversion pharmacokinetics of the pure compounds, and the second focuses on tissue distribution. All rats were transferred to metabolic cages and fasted overnight for at least 10 h. The animals were then randomly divided into four groups (6 rats/group) to receive a single intravenous (i.v.) administration of either 6G, 6S, zingerone, or vehicle via the lateral tail vein at a dosage of 3 mg/kg. After a 7-week washout period, the rats received 30 mg/kg of the same test compounds through a single oral (p.o.) administration. Following each administration, blood samples (300 µL) were collected in heparinized tubes from the lateral tail vein (while rats were under anesthesia with isoflurane) at specified time points: 0.083, 0.25, 0.5, 1, 1.5, 2, 3, 4, 6, 8, and 24 h after administration. An additional 1 mL of blood sample was collected from each rat at pre-dose (0 h) and post-dose (24 h) for clinical laboratory testing and safety evaluation. All heparinized blood samples were initially centrifuged at 5,000 × g, 4 °C, for 10 min. Subsequently, the plasma was carefully transferred to a cryotube as an aliquot sample and then stored at −40 °C until analysis. Urine and feces were collected during the intervals of 0–24 h and 24–48 h post-dosing, and their weights and volumes were documented. All collected urine and feces samples were stored at −40 °C until analysis.
Urine samples were centrifuged, and 50 µL of urine was extracted with 200 µL of 100% methanol. The mixture was vortexed for 10 min and subsequently centrifuged at 14,000 × g at 4 °C for 10 min. Feces and organs were weighed and homogenized with methanol (50:50% w/v). The supernatants of the extracted urine, feces, and organs were also filtered through a […] PVDF membrane (Chrome Tech, MN, USA) before analysis.
(§2) Investigation of glucuronide conjugations followed a previously published method with some modification ([Wang et al., 2017]; [Songvut et al., 2023]). A 50 μL aliquot of plasma, urine, or feces sample was incubated at 37 °C for a minimum of 30 min with 50 μL of β-glucuronidase (3,000 U/mL) in a sodium phosphate buffer (pH 6.8). For sample extraction, 150 μL of methanol containing 50 μg/L of IS was pipetted into the pre-incubated samples. Subsequently, the mixtures were vortexed for 10 min and then centrifuged at 14,000 × g at 4 °C for 10 min. The supernatants were filtered through a […] PVDF membrane (Chrome Tech, MN, United States) and then analyzed using the validated LC-MS/MS method.
(§3) Plasma concentration-time profiles were plotted using GraphPad Prism 9.3.0 (GraphPad Software, USA). The absolute oral bioavailability was calculated as follows: F = (AUC p.o./dose p.o.)/(AUC i.v./dose i.v.). The percentage recovery of each administered compound was calculated as the total amount of the drug found in urine or feces divided by the administered dose. The tissue-to-plasma concentration ratios (K p) were calculated by dividing the concentration in the tissue by the corresponding plasma concentration at the respective sampling time point.

Data set [3] is described as follows: Pharmacokinetics and oral bioavailability after single oral administration (30 mg/kg), plasma LC-MS/MS. The note with it: for AUC(0-t) / AUC(0-∞) / Cmax (obs): mean ± SD n=6; for Tmax (obs): median [IQR]. The protocol:
as §1
Plasma samples were processed through protein precipitation. In brief, 50 µL of plasma was mixed with 200 µL of methanol containing 50 ng/mL of IS (dihydrocapsaicin). The mixtures were vortexed and centrifuged at 14,000 × g at 4 °C for 10 min. The supernatant was filtered through a […] PVDF membrane (Chrome Tech, MN, USA) before analysis.
as §2
Quantitative analysis was conducted using liquid chromatography-tandem mass spectrometry (LC-MS/MS) with a Nexera X2 LCMS-8060NX instrument (Shimadzu, Japan). The instrument included a CBM-40lite system controller, CTO-40C column oven, SIL-40C XR autosampler, LC-40D XR solvent pump unit, FCV-DGU-403 degasser, and 20AH2 switching valve. The LC-MS/MS system was operated with a binary pump and equipped with a triple quadrupole mass spectrometer.
Pharmacokinetic parameters were assessed using PK Solutions software (version 2.0) with non-compartmental analysis. The AUC was calculated using the Linear-Log Trapezoidal Method. The maximum plasma concentration (Cmax) and time to reach maximum plasma concentration (Tmax) were taken directly from the graph.
as §3

Where [4] appears, read: plasma analyte after [6]-shogaol i.v. 3 mg/kg.
The mark [5] stands for this setting: intravenous administration 3 mg/kg of parent compound.
[6] abbreviates: oral administration 30 mg/kg of parent compound.
[7] abbreviates: plasma analyte after [6]-shogaol p.o. 30 mg/kg.
Where [8] appears, read: plasma analyte after zingerone i.v. 3 mg/kg.
Setting [9] is: plasma analyte after zingerone p.o. 30 mg/kg.
Setting [10] is: plasma analyte after [6]-gingerol i.v. 3 mg/kg.
The mark [11] stands for this setting: plasma analyte after [6]-gingerol p.o. 30 mg/kg.

Regarding `CCCCC/C=C/C(=O)CCc1ccc(O[C@@H]2O[C@H](C(=O)O)[C@@H](O)[C@H](O)[C@H]2O)c(OC)c1` [[6]-shogaol glucuronide], in data set [1] (setting [4]), the area under the curve AUC(0-t) is 7,966.49 ± 3,782.71 ng-h/mL and the “AUC(0-∞)” value is on record as 7,974.90 ± 3,786.32 ng-h/mL. In data set [2] (setting [5]), the “% Recovery excretion, feces T 0–24 h” value was 0.003 ± 0.003%; the “% Recovery excretion, feces T 24–48 h” value amounted to 0.004 ± 0.001%; the “% Recovery excretion, urine T 0–24 h” value is recorded as 0.153 ± 0.112%; the “% Recovery excretion, urine T 24–48 h” value is on record as less than 0.001%. Also, in data set [2] (setting [6]), the “% Recovery excretion, urine T 0–24 h” value is given as 0.042 ± 0.037% and the “% Recovery excretion, urine T 24–48 h” value was less than 0.001%. Also, in data set [3] (setting [7]), the area under the curve AUC(0-t) turned out to be 11.88 ± 1.87 ng·h/mL, the “AUC(0-∞)” value worked out at 11.89 ± 1.87 ng·h/mL, the “Cmax (obs)” value is on record as 18.54 ± 6.93 ng/mL and the “Tmax (obs)” value is 0.375 [0.25] h.
Take `COc1cc(CCC(C)=O)ccc1O[C@@H]1O[C@H](C(=O)O)[C@@H](O)[C@H](O)[C@H]1O` [zingerone glucuronide]: in data set [1] (setting [8]), the area under the curve AUC(0-t) is on record as 12,873.76 ± 12,580.54 ng-h/mL and the “AUC(0-∞)” value is reported as 12,903.70 ± 12,585.11 ng-h/mL. In addition, in data set [2] (setting [5]), the “% Recovery excretion, urine T 0–24 h” value was 7.396 ± 6.349% and the “% Recovery excretion, urine T 24–48 h” value was less than 0.001%. In data set [2] (setting [6]), the “% Recovery excretion, urine T 0–24 h” value came to 4.245 ±3.009% and the “% Recovery excretion, urine T 24–48 h” value came out at 0.166 ± 0.075%. Besides, the “AUC(0–∞) of glucuronide compared to AUC(0–∞) of unconjugated compound” value in data set [3] (after zingerone oral administration 30 mg/kg) amounted to 6 fold. In data set [3] (setting [9]), the “AUC(0-t)” value was determined as 5847.24 ± 134.65 ng·h/mL, the “AUC(0-∞)” value turned out to be 5847.24 ± 134.65 ng·h/mL, the “Cmax (obs)” value was 4593.37 ± 1192.68 ng/mL and the “Tmax (obs)” value is 0.25 [0.00] h.
For the compound [6]-gingerol glucuronide, in data set [1] (setting [10]), the area under the curve AUC(0-t) was 11,087.06 ± 7,432.61 ng-h/mL and the “AUC(0-∞)” value is recorded as 11,087.09 ± 7,432.598 ng-h/mL. In data set [2] (setting [5]), the “% Recovery excretion, urine T 0–24 h” value turned out to be 5.712 ± 2.768% and the “% Recovery excretion, urine T 24–48 h” value is on record as 0.146 ± 0.073%. Besides, in data set [2] (setting [6]), the “% Recovery excretion, urine T 0–24 h” value turned out to be 3.416 ± 1.735% and the “% Recovery excretion, urine T 24–48 h” value came out at 0.036 ± 0.027%. In data set [3] (setting [11]), the “AUC(0-t)” value came out at 549.22 ± 272.42 ng·h/mL, the “AUC(0-∞)” value came out at 603.05 ± 268.67 ng·h/mL, the “Cmax (obs)” value was 539.42 ± 377.66 ng/mL and the “Tmax (obs)” value was 0.25 [0.00] h.

A word on the AUC(0-t): it is the area under the concentration-time curve up to a stated or last time point. A low value points to less exposure.
